Active and inactive are the calls of the source. The rule behind the calls is not given here.
Experiments:
[1] = Permeability of compound at 100 ug/ml measured after dilution with PBS/EtOH (70:30) at pH 7.4 after 18 hrs by PAMPA-BBB assay
[2] = Antioxidant activity assessed as AAPH radical scavenging activity preincubated for 15 mins followed by AAPH addition measured every min for 90 mins by ORAC-FL assay relative to trolox; assay type: functional
[3] = target: T1, Amine oxidase [flavin-containing] A (Homo sapiens, UniProt P21397); test: Inhibition of recombinant human MAO-A expressed in baculovirus infected BTI insect cells at 10 uM incubated for 30 mins using kynuramine as substrate by fluorescence based assay relative to control; conditions: 0.5 h
T1 sequence (P21397 whole entry): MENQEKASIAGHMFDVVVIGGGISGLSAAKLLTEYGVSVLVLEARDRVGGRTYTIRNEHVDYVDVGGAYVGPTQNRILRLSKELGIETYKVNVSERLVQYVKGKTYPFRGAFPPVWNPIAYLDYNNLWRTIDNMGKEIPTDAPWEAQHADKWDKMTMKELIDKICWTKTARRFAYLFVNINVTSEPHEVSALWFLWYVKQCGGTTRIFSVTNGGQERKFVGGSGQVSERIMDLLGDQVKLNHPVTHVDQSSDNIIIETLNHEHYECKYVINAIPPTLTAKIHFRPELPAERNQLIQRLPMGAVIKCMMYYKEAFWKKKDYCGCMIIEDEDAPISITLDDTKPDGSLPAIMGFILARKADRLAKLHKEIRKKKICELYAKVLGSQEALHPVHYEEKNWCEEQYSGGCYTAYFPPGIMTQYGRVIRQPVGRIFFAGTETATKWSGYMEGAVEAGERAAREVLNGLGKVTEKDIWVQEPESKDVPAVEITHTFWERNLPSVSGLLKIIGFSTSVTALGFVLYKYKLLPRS

[4] = target: Acetylcholinesterase (Electrophorus electricus, UniProt O42275); test: Inhibition of electric eel AChE using acetylthiocholine iodide as substrate incubated for 15 mins by Ellman's method; assay type: ADME
[5] = target: T2, Amine oxidase [flavin-containing] B (Homo sapiens, UniProt P27338); test: Inhibition of recombinant human MAO-B expressed in baculovirus infected BTI insect cells using kynuramine as substrate incubated for 30 mins by fluorescence based assay; assay type: cell-based
T2 sequence (P27338 whole entry): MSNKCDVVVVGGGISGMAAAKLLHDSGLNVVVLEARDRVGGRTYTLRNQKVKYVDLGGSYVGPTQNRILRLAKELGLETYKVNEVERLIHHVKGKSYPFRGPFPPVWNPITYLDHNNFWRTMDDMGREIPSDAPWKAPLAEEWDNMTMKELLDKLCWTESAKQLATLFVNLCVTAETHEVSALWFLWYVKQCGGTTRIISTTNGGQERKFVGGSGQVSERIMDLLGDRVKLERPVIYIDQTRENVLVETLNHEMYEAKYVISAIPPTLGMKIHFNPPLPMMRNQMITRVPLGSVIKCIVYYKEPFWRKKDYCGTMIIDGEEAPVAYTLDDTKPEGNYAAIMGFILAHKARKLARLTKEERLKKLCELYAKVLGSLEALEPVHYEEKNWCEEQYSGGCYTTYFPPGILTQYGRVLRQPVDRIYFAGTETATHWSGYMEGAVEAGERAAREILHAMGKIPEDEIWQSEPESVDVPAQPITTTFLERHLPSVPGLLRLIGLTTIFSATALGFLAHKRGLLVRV

[6] = target: Amyloid-beta precursor protein (Homo sapiens) (UniProt P05067); test: Inhibition of self-induced aggregation of amyloid beta (1 to 42) (unknown origin) at 25 uM incubated for 24 hrs by thioflavin-T fluorescence assay relative to control
[7] = Selectivity index, ratio of IC50 for electric eel AChE to IC50 for equine serum BuChE
[8] = target: Cholinesterase (Equus caballus, UniProt P81908); test: Inhibition of equine serum BuChE using butyrylthiocholine iodide as substrate incubated for 15 mins by Ellman's method
[9] = Metal chelating activity assessed as compound-Cu2+ complex formation by measuring shift in maximum absorption from 361 nm to 418 nm at 37.5 uM after 30 mins by UV-visible spectrometry method
[10] = system: PC-12; test: Neuroprotective activity against H2O2-induced cell death in rat PC12 cells assessed as cell viability at 1 uM preincubated for 24 hrs followed by H2O2 stimulation for 2 hrs followed by replacement of fresh medium and measured after 24 hrs by MTT assay (reference value: 51.3%); assay type: functional; conditions: read-out: Activity
[11] = Disaggregation of Cu2+ induced preformed fibrils of amyloid beta (1 to 42) (unknown origin) at 25 uM after 24 hrs by transmission electron microscopy relative to control
[12] = Acute toxicity in Kunming mouse assessed as mortality at 250 to 1000 mg/kg, po measured for first 4 hrs through 14 days; assay type: organism-based; conditions: in vivo
[13] = target: Cholinesterase (Equus caballus) (UniProt P81908); test: Reversible inhibition of equine serum BuChE assessed as enzyme activity at 0.1xIC50 using butyrylthiocholine iodide as substrate measured at 240 mins after dilution by Ellman's method relative to control; set-up: scale not given: the % may be the effect or the level left
[14] = Metal chelating activity assessed as compound-Cu+ complex formation assessed as effect on maximum absorption shift at 37.5 uM after 30 mins by UV-visible spectrometry method
[15] = target: Cholinesterase (Equus caballus) (UniProt P81908); test: Reversible inhibition of equine serum BuChE assessed as enzyme activity at 0.1xIC50 using butyrylthiocholine iodide as substrate measured after dilution by Ellman's method relative to control; set-up: scale not given: the % may be the effect or the level left
[16] = system: PC-12; test: Neuroprotective activity against H2O2-induced cell death in rat PC12 cells assessed as cell viability at 10 uM preincubated for 24 hrs followed by H2O2 stimulation for 2 hrs followed by replacement of fresh medium and measured after 24 hrs by MTT assay (reference value: 51.3%); assay type: functional; conditions: read-out: Activity
[17] = Metal chelating activity assessed as compound-Al3+ complex formation by measuring shift in maximum absorption from 361 nm to 426 nm at 37.5 uM after 30 mins by UV-visible spectrometry method
[18] = Metal chelating activity assessed as compound-Zn2+ complex formation assessed as effect on maximum absorption shift at 37.5 uM after 30 mins by UV-visible spectrometry method
[19] = system: PC-12; test: Cytotoxicity against rat PC12 cells assessed as cell viability at 0.1 to 100 uM incubated for 24 hrs by MTT assay; assay type: cell-based; conditions: pc-12, 24 h
[20] = system: Mus musculus; test: (§1) Antialzheimer activity in po dosed scopolamine-induced memory impairment Kunming mouse model assessed as increase in latency time treated with compound 1 hr before training trial followed by 30 mins later administration with scopolamine and measured 24 hrs after training trial by step-down passive avoidance test; assay type: functional, organism-based
[21] = system: Mus musculus; test: as §1, with “in” for “in po dosed”, “as” for “as increase in”, “time at 16.8 mg/kg po” for “time”, “test (reference value: 70.4 secs)” for “test”; assay type: functional
[22] = Inhibition of Cu2+ induced human amyloid beta (1 to 42) aggregation at 25 uM after 24 hrs by thioflavin-T fluorescence assay relative to control
[23] = target: Cholinesterase (Equus caballus) (UniProt P81908); test: Reversible inhibition of equine serum BuChE assessed as enzyme activity at 1xIC50 using butyrylthiocholine iodide as substrate measured after dilution by Ellman's method relative to control; set-up: scale not given: the % may be the effect or the level left
[24] = Metal chelating activity assessed as compound-Fe2+ complex formation assessed as effect on maximum absorption shift at 37.5 uM after 30 mins by UV-visible spectrometry method
[25] = system: PC-12; test: Neuroprotective activity against H2O2-induced cell death in rat PC12 cells assessed as increase in cell viability preincubated for 24 hrs followed by H2O2 stimulation for 2 hrs followed by replacement of fresh medium and measured after 24 hrs by MTT assay; assay type: functional, cell-based
[26] = Metal chelating activity assessed as compound-Fe3+ complex formation assessed as effect on maximum absorption shift at 37.5 uM after 30 mins by UV-visible spectrometry method
[27] = Acute toxicity in Kunming mouse assessed as abnormal behaviour at 250 to 1000 mg/kg, po measured for first 4 hrs through 14 days; assay type: organism-based; conditions: in vivo
[28] = target: T1, Amine oxidase [flavin-containing] A; test: Inhibition of recombinant human MAO-A expressed in baculovirus infected BTI insect cells using kynuramine as substrate incubated for 30 mins by fluorescence based assay
[29] = organism: Homo sapiens; test: Selectivity index, ratio of IC50 for recombinant human MAO-A expressed in baculovirus infected BTI insect cells to IC50 for recombinant human MAO-B expressed in baculovirus infected BTI insect cells

Sequence of Amyloid-beta precursor protein (Homo sapiens) (P05067 whole entry): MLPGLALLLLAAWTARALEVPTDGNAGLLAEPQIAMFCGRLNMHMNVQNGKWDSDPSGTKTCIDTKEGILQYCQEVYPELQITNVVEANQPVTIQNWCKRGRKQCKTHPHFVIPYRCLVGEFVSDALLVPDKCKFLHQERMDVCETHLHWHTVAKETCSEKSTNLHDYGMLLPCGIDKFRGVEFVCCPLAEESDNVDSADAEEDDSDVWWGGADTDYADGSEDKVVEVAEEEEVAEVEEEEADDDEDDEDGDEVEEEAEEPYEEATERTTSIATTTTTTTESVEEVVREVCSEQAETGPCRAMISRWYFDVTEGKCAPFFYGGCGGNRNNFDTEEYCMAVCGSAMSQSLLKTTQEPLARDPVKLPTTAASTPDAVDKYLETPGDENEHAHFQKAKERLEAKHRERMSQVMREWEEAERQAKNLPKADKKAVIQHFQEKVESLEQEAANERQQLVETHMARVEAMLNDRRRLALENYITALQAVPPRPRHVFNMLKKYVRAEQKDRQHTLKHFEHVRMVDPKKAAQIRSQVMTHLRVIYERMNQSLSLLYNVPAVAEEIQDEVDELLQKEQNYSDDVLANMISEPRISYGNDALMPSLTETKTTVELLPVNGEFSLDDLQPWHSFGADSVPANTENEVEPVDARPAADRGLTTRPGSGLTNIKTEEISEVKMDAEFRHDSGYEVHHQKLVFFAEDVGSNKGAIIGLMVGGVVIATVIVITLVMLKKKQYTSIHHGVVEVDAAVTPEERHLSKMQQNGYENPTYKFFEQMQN
Sequence of Acetylcholinesterase (O42275 whole entry): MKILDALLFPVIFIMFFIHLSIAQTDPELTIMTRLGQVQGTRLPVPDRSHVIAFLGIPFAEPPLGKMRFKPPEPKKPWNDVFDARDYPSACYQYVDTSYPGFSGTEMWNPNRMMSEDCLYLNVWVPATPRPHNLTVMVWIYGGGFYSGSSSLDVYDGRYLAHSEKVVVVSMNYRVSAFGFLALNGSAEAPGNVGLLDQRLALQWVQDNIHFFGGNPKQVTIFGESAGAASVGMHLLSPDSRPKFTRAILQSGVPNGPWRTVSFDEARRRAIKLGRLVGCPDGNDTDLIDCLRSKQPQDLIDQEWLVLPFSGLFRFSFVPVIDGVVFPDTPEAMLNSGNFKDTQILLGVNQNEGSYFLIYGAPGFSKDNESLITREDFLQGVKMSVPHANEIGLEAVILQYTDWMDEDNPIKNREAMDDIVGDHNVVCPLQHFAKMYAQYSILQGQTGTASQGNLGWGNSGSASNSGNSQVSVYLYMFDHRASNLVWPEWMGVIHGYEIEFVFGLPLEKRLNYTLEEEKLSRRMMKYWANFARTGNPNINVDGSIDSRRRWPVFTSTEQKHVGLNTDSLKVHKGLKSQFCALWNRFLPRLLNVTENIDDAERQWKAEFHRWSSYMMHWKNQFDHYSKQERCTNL
Sequence of Cholinesterase (P81908 whole entry): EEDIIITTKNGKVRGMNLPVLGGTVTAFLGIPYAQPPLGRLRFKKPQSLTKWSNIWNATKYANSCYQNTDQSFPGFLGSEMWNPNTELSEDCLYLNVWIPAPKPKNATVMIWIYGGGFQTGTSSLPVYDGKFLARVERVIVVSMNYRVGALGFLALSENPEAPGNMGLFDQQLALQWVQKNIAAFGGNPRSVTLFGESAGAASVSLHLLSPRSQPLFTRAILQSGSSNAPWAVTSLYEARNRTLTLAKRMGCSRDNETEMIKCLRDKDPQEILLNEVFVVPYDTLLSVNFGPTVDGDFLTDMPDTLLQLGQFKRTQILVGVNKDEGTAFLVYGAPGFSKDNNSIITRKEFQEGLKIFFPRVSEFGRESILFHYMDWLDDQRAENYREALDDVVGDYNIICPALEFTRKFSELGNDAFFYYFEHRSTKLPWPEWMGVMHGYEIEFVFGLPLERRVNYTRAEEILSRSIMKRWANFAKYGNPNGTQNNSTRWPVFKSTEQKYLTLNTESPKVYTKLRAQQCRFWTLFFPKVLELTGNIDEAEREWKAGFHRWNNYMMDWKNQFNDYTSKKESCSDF
Sequence of Cholinesterase (Equus caballus) (P81908 whole entry): as above

CN(C)c1ccc(/C=C/C(=O)c2ccc(OCCCCCCN3CCc4ccccc4C3)cc2O)cc1
Papp at 18 h, 100 ug/ml [1]: 13.2 ×10⁻⁶ cm/s | Activity [2]: 1.6 µMequiv/µM | inhibition at 10 µM [3]: < 5% | IC50 [4]: 6.6 µM | IC50 [5]: 7.1 µM | inhibition [6]: 97.5% | Ratio IC50 [7]: 0.6 | IC50 [8]: 10.4 µM

O=C(/C=C/c1cccc(OCCCCN2CCc3ccccc3C2)c1)c1ccccc1O
Activity [9]: Active | Papp at 18 h, 100 ug/ml [1]: 11.3 ×10⁻⁶ cm/s | viability at 1 µM [10]: 61.9% | inhibition [11]: 73.5% | Activity [12]: Non-Toxic | Activity [13]: 104% | Activity [14]: inactive | Activity [2]: 1.2 µMequiv/µM | Activity [15]: 60.8% | viability at 10 µM [16]: 82.6% | Activity [17]: Active | inhibition at 10 µM [3]: < 5% | Activity [18]: inactive | Activity [19]: Non-Toxic | IC50 [4]: 16.2 µM | Activity [20]: Dose-dependent effect | Time [21]: 126.4 s | inhibition [22]: 80.7% | IC50 [5]: 5.3 µM | Activity [23]: 52.6% | inhibition [6]: 70.2% | Ratio IC50 [7]: 6.2 | Activity [24]: inactive | Activity [25]: Dose-dependent effect | IC50 [8]: 2.6 µM | Activity [26]: inactive | Activity [27]: Non-Toxic

O=C(CCc1cccc(OCCCCN2CCc3ccccc3C2)c1)c1ccccc1O
Papp at 18 h, 100 ug/ml [1]: 16.8 ×10⁻⁶ cm/s | Activity [2]: 1.4 µMequiv/µM | inhibition at 10 µM [3]: < 5% | IC50 [4]: 23.1 µM | IC50 [5]: 26.7 µM | Ratio IC50 [7]: 36 | IC50 [8]: 0.64 µM

O=C(/C=C/c1cccc(OCCCN2CCc3ccccc3C2)c1)c1ccccc1O
Papp at 18 h, 100 ug/ml [1]: 10.2 ×10⁻⁶ cm/s | Activity [2]: 1.1 µMequiv/µM | IC50 [28]: 29.8 µM | IC50 [4]: 17.6 µM | IC50 [5]: 10.7 µM | inhibition [6]: 65.9% | Ratio IC50 [29]: 2.8 | Ratio IC50 [7]: 1.6 | IC50 [8]: 11.2 µM

COc1cc(/C=C/C(=O)CC(=O)/C=C/c2ccc(O)c(OC)c2)ccc1O
inhibition [11]: 56.5% | inhibition [22]: 76.5%

O=C(/C=C/c1cccc(OCCCCCN2CCc3ccccc3C2)c1)c1ccccc1O
Papp at 18 h, 100 ug/ml [1]: 10 ×10⁻⁶ cm/s | Activity [2]: 1.2 µMequiv/µM | inhibition at 10 µM [3]: < 5% | IC50 [4]: 18.6 µM | IC50 [5]: 4.8 µM | inhibition [6]: 69.7% | Ratio IC50 [7]: 7.2 | IC50 [8]: 3.7 µM

O=C(/C=C/c1cccc(OCCCCCCN2CCc3ccccc3C2)c1)c1ccccc1O
Papp at 18 h, 100 ug/ml [1]: 11.8 ×10⁻⁶ cm/s | Activity [2]: 1.1 µMequiv/µM | IC50 [28]: 31.5 µM | IC50 [4]: 27.1 µM | IC50 [5]: 6.7 µM | inhibition [6]: 65.6% | Ratio IC50 [29]: 4.7 | Ratio IC50 [7]: 6.6 | IC50 [8]: 4.1 µM

COc1cc2c(cc1OC)C(=O)C(CC1CCN(Cc3ccccc3)CC1)C2 (centres undefined)
Activity [13]: 127% | Activity [15]: 60.5% | Activity [23]: 50.9%

O=C(/C=C/c1cccc(OCCCCN2CCC(Cc3ccccc3)CC2)c1)c1ccccc1O
Papp at 18 h, 100 ug/ml [1]: 12.3 ×10⁻⁶ cm/s | Activity [2]: 1.2 µMequiv/µM | inhibition at 10 µM [3]: < 5% | IC50 [4]: 15.3 µM | IC50 [5]: 6.4 µM | inhibition [6]: 71.4% | Ratio IC50 [7]: 3.1 | IC50 [8]: 4.9 µM

O=C(/C=C/c1ccc(F)cc1)c1ccc(OCCCN2CCc3ccccc3C2)cc1O
Papp at 18 h, 100 ug/ml [1]: 12.6 ×10⁻⁶ cm/s | Activity [2]: 0.92 µMequiv/µM | IC50 [28]: 26.1 µM | IC50 [4]: 22.3 µM | IC50 [5]: 12.6 µM | inhibition [6]: 72.4% | Ratio IC50 [29]: 2.1 | Ratio IC50 [7]: 1.7 | IC50 [8]: 13.4 µM

COc1ccccc1/C=C/C(=O)c1ccc(OCCCCN2CCc3ccccc3C2)cc1O
Papp at 18 h, 100 ug/ml [1]: 13.1 ×10⁻⁶ cm/s | Activity [2]: 1.5 µMequiv/µM | IC50 [28]: 30.1 µM | IC50 [4]: 8.3 µM | IC50 [5]: 9.5 µM | inhibition [6]: 83.1% | Ratio IC50 [29]: 2.4 | Ratio IC50 [7]: 1.6 | IC50 [8]: 5.2 µM

Reference: ChEMBL document CHEMBL4364308, “Design, synthesis, in-silico and biological evaluation of novel chalcone derivatives as multi-function agents for the treatment of Alzheimer's disease” (Eur J Med Chem, 2019)
